Measured values reported in publication PMC10975748.

Key:
[1] = tested on: anti-TTX monoclonal antibody; type: binding
[2] = analogues purified from pufferfish liver; patch clamp
[3] = tested on: isolated mouse phrenic-nerve-hemi-diaphragm muscle preparations; experiment: Nerve-evoked isometric contraction, reversal of CiTX neuromuscular block; details: 100 µM, in continuous presence of GYM-A, PnTX-A, PnTX-G or PteTX-1
[4] = target: T1, muscle-type α12βεδ nAChRs (Mus musculus, UniProt P02716+P04756+P20782); experiment: Nerve-evoked isometric contraction, block by cyclic imine toxins
T1 construct: skeletal muscle expressing α12βεδ nAChRs; from tissue; host or cells: isolated mouse phrenic-nerve-hemi-diaphragm muscle

[5] = tested on: mice injected with venoms; experiment: Recovery from neuroparalysis in mice injected with neurotoxic snake venoms; type: in vivo
Excerpt: (§1) Abstract: Envenomation by snakes is a major neglected human disease even though it affects millions of people with sequelae and kills hundreds of thousands of them. A large toll is taken by snakes that inject neurotoxic venoms capable of inducing complete degeneration of motor axon terminals with rapid development of a peripheral neuroparalysis with severe respiratory deficit. The major venom component causing this degeneration are presynaptic acting PLA2s that hydrolyse phospholipids in lysophospholipids and fatty acids that induce large entry of Ca^2+ into the neuronal cytosol. This leads to the activation of endogenous hydrolases that cause a complete degeneration of the motor axon terminals, which is followed by a regeneration program, only partially known in molecular terms. We recently identified two types of membrane receptors involved in the regeneration of the paralysed neuromuscular junction (NMJ). Here we report that this paralysis activates a proregenerative molecular axis, consisting of the CXCR4 receptor expressed at the stump of degenerated motor axon terminals and by the release of its ligand CXCL12α by surrounding Schwann cells. […]

[6] = Excerpt: as §1
[7] = tested on: serotonin, histamine, opioid and nicotinic receptors, TRP channels or voltage-gated sodium, potassium or calcium channels; experiment: Selectivity of OS on other receptors and channels; type: cell-based
[8] = target: T2, CB1 receptors (Homo sapiens, UniProt P21554); experiment: Two-electrode voltage-clamp, CB1-GIRK1/2-RGS4 system in Xenopus laevis oocytes; type: cell-based; details: GIRK1/2 currents induced by WIN55,212-2, Xenopus oocytes
T2 construct: expressed in transfected cells; host or cells: Xenopus laevis oocytes
Excerpt: (§2) Abstract: Cannabinoid receptors (CB1 and CB2) are promising targets for diverse diseases, such as pain, inflammation, and neurological diseases. However, only a few ligands of CB receptors have reached clinical application so far. In the present study, we focused on the venom of Stephanoconus snails and found an endocannabinoid-like molecule, oleoyl serotonin (OS), active on CB1 and CB2. To determine the effects of OS, CB1 and CB2 receptors were functionally expressed in Xenopus laevis oocytes, together with the G protein-coupled inwardly rectifier potassium channels (GIRK1/2), and a regulator of G protein signalling (RGS4). Ion currents were measured with a two-electrode voltage-clamp system. […] To the best of our knowledge, OS is the first venom-derived ligand modulating CB receptors. […]. To investigate the critical domains of the CB receptor for OS activity, we constructed a chimeric CB1/2 receptor by replacing the transmembrane domain V (TMV)-intracellular loop 3 (ICL3)-TMVI domain (TMV-ICL3-TMVI) of the CB2 receptor with that of the CB1 receptor. […] This study highlights the potential of animal venom components as a promising library for the discovery of novel CB receptor ligands.

[9] = tested on: mice; experiment: In vivo evaluation of OS on brain-related neurological functions
[10] = target: T3, CB2 receptors (Homo sapiens, UniProt P34972); experiment: Two-electrode voltage-clamp, CB2 with GIRK1/2 and RGS4 in Xenopus laevis oocytes; type: cell-based; details: GIRK1/2, RGS4
T3 construct: expressed in transfected cells; host or cells: Xenopus laevis oocytes
Excerpt: as §2

[11] = target: human mitoTRPV1 (Homo sapiens, UniProt Q8NER1); type: cell-based
Sequence of human mitoTRPV1 (Q8NER1 434-839): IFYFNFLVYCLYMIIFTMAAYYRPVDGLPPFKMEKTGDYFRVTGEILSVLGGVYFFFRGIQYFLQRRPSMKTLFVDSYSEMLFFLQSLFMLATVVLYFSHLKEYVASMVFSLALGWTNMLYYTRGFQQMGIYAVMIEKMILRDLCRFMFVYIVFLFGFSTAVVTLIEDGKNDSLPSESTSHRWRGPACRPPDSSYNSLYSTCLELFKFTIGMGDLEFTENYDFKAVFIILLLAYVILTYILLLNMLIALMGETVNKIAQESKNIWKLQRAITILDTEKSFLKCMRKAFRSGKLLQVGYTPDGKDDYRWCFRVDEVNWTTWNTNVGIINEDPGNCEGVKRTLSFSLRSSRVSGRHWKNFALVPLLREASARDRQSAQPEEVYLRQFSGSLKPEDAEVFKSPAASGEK

T1 sequence (P09690 24-501): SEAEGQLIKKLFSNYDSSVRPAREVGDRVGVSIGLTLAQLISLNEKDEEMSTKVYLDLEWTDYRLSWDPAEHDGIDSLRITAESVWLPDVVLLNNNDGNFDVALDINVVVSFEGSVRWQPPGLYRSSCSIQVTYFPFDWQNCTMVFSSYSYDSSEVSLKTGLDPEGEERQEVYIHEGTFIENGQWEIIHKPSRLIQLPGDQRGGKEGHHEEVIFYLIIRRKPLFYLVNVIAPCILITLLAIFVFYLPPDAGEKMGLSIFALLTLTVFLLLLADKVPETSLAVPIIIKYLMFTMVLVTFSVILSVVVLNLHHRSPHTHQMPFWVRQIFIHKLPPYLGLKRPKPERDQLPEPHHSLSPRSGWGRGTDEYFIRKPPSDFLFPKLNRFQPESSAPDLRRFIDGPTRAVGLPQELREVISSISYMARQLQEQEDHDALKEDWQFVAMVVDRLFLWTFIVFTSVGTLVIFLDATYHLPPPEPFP
T1 sequence (P02716 25-520): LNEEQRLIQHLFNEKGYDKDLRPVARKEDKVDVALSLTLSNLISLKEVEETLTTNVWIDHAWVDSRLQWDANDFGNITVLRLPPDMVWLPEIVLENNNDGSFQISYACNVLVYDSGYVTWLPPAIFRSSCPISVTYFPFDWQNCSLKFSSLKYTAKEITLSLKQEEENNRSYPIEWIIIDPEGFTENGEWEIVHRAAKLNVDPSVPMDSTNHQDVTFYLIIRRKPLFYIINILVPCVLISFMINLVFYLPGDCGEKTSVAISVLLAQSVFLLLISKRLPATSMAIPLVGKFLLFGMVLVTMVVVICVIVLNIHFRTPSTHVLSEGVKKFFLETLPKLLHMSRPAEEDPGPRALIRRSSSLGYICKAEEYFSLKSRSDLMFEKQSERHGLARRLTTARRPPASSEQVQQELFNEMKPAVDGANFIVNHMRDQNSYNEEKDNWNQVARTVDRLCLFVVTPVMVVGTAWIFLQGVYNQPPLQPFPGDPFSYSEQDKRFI
T1 sequence (P04756 21-457): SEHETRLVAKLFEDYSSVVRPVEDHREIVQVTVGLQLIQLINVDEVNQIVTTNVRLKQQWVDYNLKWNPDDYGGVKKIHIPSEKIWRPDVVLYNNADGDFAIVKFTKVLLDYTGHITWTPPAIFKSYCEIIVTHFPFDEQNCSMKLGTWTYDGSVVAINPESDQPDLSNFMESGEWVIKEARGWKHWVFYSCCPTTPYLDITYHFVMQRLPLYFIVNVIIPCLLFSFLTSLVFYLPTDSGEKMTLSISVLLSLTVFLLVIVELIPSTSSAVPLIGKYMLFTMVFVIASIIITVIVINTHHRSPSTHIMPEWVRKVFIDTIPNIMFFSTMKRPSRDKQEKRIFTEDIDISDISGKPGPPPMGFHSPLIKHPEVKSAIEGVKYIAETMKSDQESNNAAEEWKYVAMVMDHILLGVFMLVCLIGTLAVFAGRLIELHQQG
T1 sequence (P20782 21-493): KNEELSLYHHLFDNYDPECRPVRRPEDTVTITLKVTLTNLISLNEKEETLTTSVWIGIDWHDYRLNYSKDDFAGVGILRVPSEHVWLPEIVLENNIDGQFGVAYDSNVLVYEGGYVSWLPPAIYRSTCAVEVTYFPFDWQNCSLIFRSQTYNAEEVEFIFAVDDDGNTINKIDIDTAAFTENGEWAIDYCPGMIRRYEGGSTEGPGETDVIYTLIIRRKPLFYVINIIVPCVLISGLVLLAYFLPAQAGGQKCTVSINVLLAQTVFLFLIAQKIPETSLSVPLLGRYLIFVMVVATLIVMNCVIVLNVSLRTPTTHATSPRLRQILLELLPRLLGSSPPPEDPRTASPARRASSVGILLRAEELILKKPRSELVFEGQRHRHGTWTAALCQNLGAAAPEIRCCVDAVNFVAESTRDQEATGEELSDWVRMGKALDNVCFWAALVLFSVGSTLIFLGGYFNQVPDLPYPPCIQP
T3 sequence (P34972 whole entry): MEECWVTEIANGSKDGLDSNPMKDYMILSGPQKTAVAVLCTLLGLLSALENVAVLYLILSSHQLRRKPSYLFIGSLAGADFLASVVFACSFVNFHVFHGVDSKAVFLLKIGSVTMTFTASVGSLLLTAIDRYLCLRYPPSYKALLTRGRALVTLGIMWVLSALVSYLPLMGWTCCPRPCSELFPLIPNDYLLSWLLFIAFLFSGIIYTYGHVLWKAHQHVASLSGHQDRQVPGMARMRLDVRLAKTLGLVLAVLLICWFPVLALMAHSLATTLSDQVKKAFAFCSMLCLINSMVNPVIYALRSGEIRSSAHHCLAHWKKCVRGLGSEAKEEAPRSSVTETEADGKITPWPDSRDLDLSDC
T2 sequence (P21554 whole entry): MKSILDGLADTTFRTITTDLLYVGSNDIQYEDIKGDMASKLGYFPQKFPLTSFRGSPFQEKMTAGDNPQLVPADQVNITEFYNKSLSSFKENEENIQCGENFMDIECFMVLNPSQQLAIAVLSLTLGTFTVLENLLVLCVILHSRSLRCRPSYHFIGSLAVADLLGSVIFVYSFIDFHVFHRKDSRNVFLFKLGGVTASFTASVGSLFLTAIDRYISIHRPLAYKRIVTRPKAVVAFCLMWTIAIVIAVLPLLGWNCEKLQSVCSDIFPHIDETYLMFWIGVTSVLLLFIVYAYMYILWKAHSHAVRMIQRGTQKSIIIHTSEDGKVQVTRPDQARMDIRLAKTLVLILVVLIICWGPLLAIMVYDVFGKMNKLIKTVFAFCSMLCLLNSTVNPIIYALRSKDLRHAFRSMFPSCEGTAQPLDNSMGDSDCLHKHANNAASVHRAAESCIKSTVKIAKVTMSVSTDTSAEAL

5,6,11-trideoxyTTX
cross-reactivity (cross-reactivity factors, CRFs) [1]: lower | toxicity (toxicity equivalency factors, TEFs) [2]: lower

5,11-dideoxyTTX
cross-reactivity (cross-reactivity factors, CRFs) [1]: lower

Nc1ccncc1N [3,4-DAP, 3,4-Diaminopyridine]
reversal of neuromuscular block caused by the CiTX [3]: completely reverses

CC1=C[C@@H](C2=C(C)[C@@H]3/C=C(\C)[C@@H](O)CC[C@@H]4C[C@@H](C)[C@@H](O4)/C(C)=C/CCC4=NCCC[C@@]43CC2)OC1=O [GYM-A]
type of inhibition of α12βεδ nAChRs [4]: competitive and reversible inhibitors

CCCn1nc(C(=O)N2CCCCC2)c2c1CCC(NCCc1ccncc1)C2 (centres unmarked) [NUCC-390]
time of recovery from neuroparalysis ([5]; determined by imaging, electrophysiological methods and lung ventilation): shortens the time of recovery from neuroparalysis | efficacy in mice injected with venoms ([5]; venoms of three Bungarus species, Oxyuranus scutellatus, Micrurus nigrocinctus, Vipera ammodytes and V. aspis): very effective | blood brain barrier crossing [6]: does not cross the blood brain barrier | toxicity [6]: non-toxic

CCCCCCCC/C=C\CCCCCCCC(=O)NCCc1c[nH]c2ccc(O)cc12 [OS, oleoyl serotonin]
activity on other receptors and channels [7]: does not show significant activity | mode of action on CB1 receptors [8]: competitive antagonist | effect on brain-related neurological functions [9]: anxiolytic effect | mode of action on CB2 receptors [10]: non-competitive blocker

C=C1CCCC2=NC[C@H](C)[C@@H](C)C[C@@]23CCC(C(=O)O)=C[C@@H]3[C@@H]2O[C@]3(C[C@H]4CCC[C@@]5(CC[C@@]6(O[C@@H](CC[C@@]6(C)O)C1)O5)O4)C[C@@H](C)[C@@H](O)[C@H]2O3 [PnTX-A]
type of inhibition of α12βεδ nAChRs [4]: competitive and reversible inhibitors

C=CC1=C[C@@H]2[C@@H]3O[C@]4(C[C@H]5CCC[C@@]6(CC[C@@]7(O[C@@H](CC[C@@]7(C)O)CC(=C)CCCC7=NC[C@H](C)[C@@H](C)C[C@@]72CC1)O6)O5)C[C@@H](C)[C@@H](O)[C@H]3O4 [PnTX-G]
type of inhibition of α12βεδ nAChRs [4]: competitive and reversible inhibitors

C=C(C)[C@]12C[C@@H](C)[C@@]34O[C@](Cc5ccccc5)(O[C@@H]1[C@@H]3C=C(COC(=O)Cc1ccc(O)c(OC)c1)C[C@]1(O)C(=O)C(C)=C[C@@H]41)O2 [RTX, resiniferatoxin]
mitochondrial Ca2+ efflux [11]: enhanced a Ca^2+ efflux from the mitochondria | mitochondrial temperature [11]: significant reduction in the mitochondrial temperature
